According to ChEMBL document CHEMBL1201862, “PubChem BioAssay data set” (2004):
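In this assay, cells in 96-well plates receive the compound at five concentrations for 48 hours. Endpoints are linearly interpolated between the surrounding concentrations. GI50 is the concentration that inhibits growth by half.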 The source made the active and inactive calls. Cut-off read from the data, not from the text of the source: active = GI50 up to about 1.1 µM and inactive = higher. Where a SMILES comes first, the peptide text is derived from it. [ ]: non-standard residue; d: D form. Hiv = CC(C)[C@H](O)C(=O)O

How the values were obtained:
Assay in all cases: DTP human tumour cell line panel, 48 h
A549 = tested on: A549
UACC-62 = tested on: UACC-62
ACHN = tested on: ACHN
MDA-N = tested on: MDA-N
K562 = tested on: K562
SK-OV-3 = tested on: SK-OV-3
786-0 = tested on: 786-0
TK-10 = tested on: TK-10
SW-620 = tested on: SW-620
U-251 = tested on: U-251
HOP-62 = tested on: HOP-62
HCC 2998 = tested on: HCC 2998
COLO 205 = tested on: COLO 205
SK-MEL-2 = tested on: SK-MEL-2
SF-295 = tested on: SF-295
Malme-3M = tested on: Malme-3M
NCI-H522 = tested on: NCI-H522
OVCAR-8 = tested on: OVCAR-8
IGROV-1 = tested on: IGROV-1
NCI/ADR-RES = tested on: NCI/ADR-RES

Structure (SMILES) | GI50 (A549) | GI50 (UACC-62) | GI50 (ACHN) | GI50 (MDA-N) | GI50 (K562) | GI50 (SK-OV-3) | GI50 (786-0) | GI50 (TK-10) | GI50 (SW-620) | GI50 (U-251) | GI50 (HOP-62) | GI50 (HCC 2998) | GI50 (COLO 205) | GI50 (SK-MEL-2) | GI50 (SF-295) | GI50 (Malme-3M) | GI50 (NCI-H522) | GI50 (OVCAR-8) | GI50 (IGROV-1) | GI50 (NCI/ADR-RES)
CC(C)CC(O)P(=O)(O)O.NC1CCCCC1 (configuration not stated) | > 100 µM (inactive) | > 100 µM (inactive) | > 100 µM (inactive) | > 100 µM (inactive) | > 100 µM (inactive) | > 100 µM (inactive) | > 100 µM (inactive) | > 100 µM (inactive) | > 100 µM (inactive) | > 100 µM (inactive) | > 100 µM (inactive) | > 100 µM (inactive) | > 100 µM (inactive) | > 100 µM (inactive) | > 100 µM (inactive) | – | – | – | – | –
O=C1CN(c2ccccc2)C(=O)CN1NCNN1CC(=O)N(c2ccccc2)CC1=O | > 100 µM (inactive) | > 100 µM (inactive) | > 100 µM (inactive) | > 100 µM (inactive) | – | > 100 µM (inactive) | > 100 µM (inactive) | > 100 µM (inactive) | > 100 µM (inactive) | > 100 µM (inactive) | > 100 µM (inactive) | > 100 µM (inactive) | > 100 µM (inactive) | – | > 100 µM (inactive) | > 100 µM (inactive) | > 100 µM (inactive) | > 100 µM (inactive) | > 100 µM (inactive) | –
CC(=O)N1C(Nc2nccs2)CCN1c1ccccc1 (configuration not stated) | > 10 µM (inactive) | – | > 10 µM (inactive) | > 10 µM (inactive) | > 10 µM (inactive) | – | > 10 µM (inactive) | > 10 µM (inactive) | > 10 µM (inactive) | – | > 10 µM (inactive) | > 10 µM (inactive) | > 10 µM (inactive) | > 10 µM (inactive) | > 10 µM (inactive) | > 10 µM (inactive) | – | > 10 µM (inactive) | > 10 µM (inactive) | > 10 µM (inactive)
CCOC(=O)c1sc2[n+](c1C)C(=O)/C(=C/c1ccc([N+](=O)[O-])cc1)S2 | 23.5 µM (inactive) | 17.9 µM (inactive) | 30.6 µM (inactive) | 27.7 µM (inactive) | 20.9 µM (inactive) | 23.8 µM (inactive) | 22.2 µM (inactive) | 20.6 µM (inactive) | 28.5 µM (inactive) | 17.3 µM (inactive) | 20.7 µM (inactive) | 17.2 µM (inactive) | 30.7 µM (inactive) | 20.7 µM (inactive) | 18.5 µM (inactive) | – | – | 19.5 µM (inactive) | – | 13.8 µM (inactive)
CC(=O)c1c[nH]cc1CO | > 10 µM (inactive) | – | > 10 µM (inactive) | > 10 µM (inactive) | > 10 µM (inactive) | > 10 µM (inactive) | > 10 µM (inactive) | > 10 µM (inactive) | > 10 µM (inactive) | > 10 µM (inactive) | > 10 µM (inactive) | > 10 µM (inactive) | > 10 µM (inactive) | > 10 µM (inactive) | > 10 µM (inactive) | > 10 µM (inactive) | – | > 10 µM (inactive) | > 10 µM (inactive) | > 10 µM (inactive)
COP(=O)(OC)C(O)CC(C)C (configuration not stated) | > 100 µM (inactive) | > 100 µM (inactive) | > 100 µM (inactive) | > 100 µM (inactive) | > 100 µM (inactive) | > 100 µM (inactive) | > 100 µM (inactive) | > 100 µM (inactive) | > 100 µM (inactive) | > 100 µM (inactive) | > 100 µM (inactive) | > 100 µM (inactive) | > 100 µM (inactive) | > 100 µM (inactive) | > 100 µM (inactive) | – | – | – | – | –
CC(C)[C@@H]1OC(=O)[C@@H](C)NC(=O)[C@@H]2CCCN2C1=O (cyclo([Hiv]-Pro-[dA])) | > 100 µM (inactive) | > 100 µM (inactive) | > 100 µM (inactive) | > 100 µM (inactive) | – | > 100 µM (inactive) | > 100 µM (inactive) | > 100 µM (inactive) | > 100 µM (inactive) | – | > 100 µM (inactive) | > 100 µM (inactive) | > 100 µM (inactive) | > 100 µM (inactive) | > 100 µM (inactive) | > 100 µM (inactive) | – | > 100 µM (inactive) | > 100 µM (inactive) | > 100 µM (inactive)
CCOC(=O)C(C)c1nc2cc3cccnc3c(Cl)c2[nH]c1=O (configuration not stated) | – | > 100 µM (inactive) | 94.6 µM (inactive) | – | > 100 µM (inactive) | > 100 µM (inactive) | > 100 µM (inactive) | > 100 µM (inactive) | > 100 µM (inactive) | > 100 µM (inactive) | > 100 µM (inactive) | 85.3 µM (inactive) | > 100 µM (inactive) | 86.9 µM (inactive) | > 100 µM (inactive) | – | – | > 100 µM (inactive) | 52.6 µM (inactive) | > 100 µM (inactive)
Clc1nc(Cl)c(-c2ccccc2)c(Cl)n1 | 17.1 µM (inactive) | 3.09 µM (inactive) | 0.29 µM (active) | 2.49 µM (inactive) | 2.9 µM (inactive) | 11.2 µM (inactive) | 2.5 µM (inactive) | 10.1 µM (inactive) | 2.26 µM (inactive) | 5.32 µM (inactive) | 16.9 µM (inactive) | – | 1.84 µM (inactive) | – | 12.7 µM (inactive) | 2.02 µM (inactive) | 1.55 µM (inactive) | 2.75 µM (inactive) | 4.92 µM (inactive) | 3.42 µM (inactive)
O=C(CSCC(=O)N/N=C/c1ccc(F)cc1)N/N=C/c1ccc(F)cc1 | 54.8 µM (inactive) | > 100 µM (inactive) | > 100 µM (inactive) | – | 57.1 µM (inactive) | > 100 µM (inactive) | > 100 µM (inactive) | > 100 µM (inactive) | > 100 µM (inactive) | > 100 µM (inactive) | > 100 µM (inactive) | 66.8 µM (inactive) | > 100 µM (inactive) | > 100 µM (inactive) | – | > 100 µM (inactive) | 65.9 µM (inactive) | > 100 µM (inactive) | > 100 µM (inactive) | > 100 µM (inactive)
NC1=NCC(c2ccccn2)C1c1ccc(F)cc1 (configuration not stated) | > 100 µM (inactive) | > 100 µM (inactive) | > 100 µM (inactive) | – | > 100 µM (inactive) | > 100 µM (inactive) | > 100 µM (inactive) | > 100 µM (inactive) | > 100 µM (inactive) | > 100 µM (inactive) | > 100 µM (inactive) | > 100 µM (inactive) | > 100 µM (inactive) | > 100 µM (inactive) | > 100 µM (inactive) | > 100 µM (inactive) | > 100 µM (inactive) | > 100 µM (inactive) | > 100 µM (inactive) | –
CN(C)Cc1c(O)ccc2c1c1c(n2C)C(=O)c2ccccc2C1=O | 2.51 µM (inactive) | 3.55 µM (inactive) | 2.31 µM (inactive) | – | 3.12 µM (inactive) | 20.2 µM (inactive) | 7.21 µM (inactive) | 7.41 µM (inactive) | 4.72 µM (inactive) | 4.52 µM (inactive) | 15.1 µM (inactive) | 3.45 µM (inactive) | 6.76 µM (inactive) | 5.31 µM (inactive) | 6.17 µM (inactive) | 3.72 µM (inactive) | 3.95 µM (inactive) | 5.46 µM (inactive) | 3.73 µM (inactive) | 2.73 µM (inactive)
CN(C)c1ncc(-c2c[nH]c3ccccc23)nc1-c1c[nH]c2ccccc12 | 3.33 µM (inactive) | 1.99 µM (inactive) | 2.67 µM (inactive) | 2.08 µM (inactive) | 2.8 µM (inactive) | 7.66 µM (inactive) | 2.12 µM (inactive) | 8.59 µM (inactive) | 3.38 µM (inactive) | 3.37 µM (inactive) | 8.18 µM (inactive) | 1.67 µM (inactive) | 2.3 µM (inactive) | 3.83 µM (inactive) | 2.33 µM (inactive) | – | – | 6.93 µM (inactive) | 3.24 µM (inactive) | 9.95 µM (inactive)
ClCCc1ccccc1CC1=NCCc2ccccc21 | 33.2 µM (inactive) | 28.6 µM (inactive) | 30.8 µM (inactive) | – | 28.4 µM (inactive) | 44.7 µM (inactive) | 42.6 µM (inactive) | 41.7 µM (inactive) | 29.9 µM (inactive) | 31.8 µM (inactive) | 34.8 µM (inactive) | 25.1 µM (inactive) | 24 µM (inactive) | 18.5 µM (inactive) | 39.3 µM (inactive) | – | 16.7 µM (inactive) | 28.4 µM (inactive) | 32 µM (inactive) | 21.9 µM (inactive)
Cc1ccc(S(=NS(=O)(=O)c2ccc(C)cc2)c2ccc(C)cc2)cc1 | 62.5 µM (inactive) | – | > 100 µM (inactive) | 77.1 µM (inactive) | 36.1 µM (inactive) | – | > 100 µM (inactive) | > 100 µM (inactive) | > 100 µM (inactive) | 57.5 µM (inactive) | > 100 µM (inactive) | – | 54.7 µM (inactive) | – | 75.7 µM (inactive) | > 100 µM (inactive) | – | 71.6 µM (inactive) | – | 38.7 µM (inactive)
CCOc1ccc(NC(=O)CC2C(=O)Nc3ccccc3[S+]2[O-])cc1 (configuration not stated) | > 94 µM (inactive) | > 46.5 µM (inactive) | > 52.7 µM (inactive) | – | > 100 µM (inactive) | > 100 µM (inactive) | 49.1 µM (inactive) | > 71.4 µM (inactive) | > 76.6 µM (inactive) | 52.4 µM (inactive) | > 100 µM (inactive) | > 64.7 µM (inactive) | > 100 µM (inactive) | > 100 µM (inactive) | > 100 µM (inactive) | 98.2 µM (inactive) | > 100 µM (inactive) | 57.9 µM (inactive) | > 90.6 µM (inactive) | –
